Measured values published in patent US10472333B2, “P2X4 receptor antagonist” (NIPPON CHEMIPHAR CO., LTD., priority 2013, dated 2019).
Counter-ions that a name gives are not always drawn.

molecular target: T1, human P2X4 receptor (Homo sapiens, UniProt Q99571); assay: P2X4 receptor antagonist activity, ATP-induced intracellular calcium (Fura-2 AM) in 1321N1 cells stably expressing human P2X4 receptor; assay type: cell-based; conditions: not given
T1 sequence (Q99571 1-388): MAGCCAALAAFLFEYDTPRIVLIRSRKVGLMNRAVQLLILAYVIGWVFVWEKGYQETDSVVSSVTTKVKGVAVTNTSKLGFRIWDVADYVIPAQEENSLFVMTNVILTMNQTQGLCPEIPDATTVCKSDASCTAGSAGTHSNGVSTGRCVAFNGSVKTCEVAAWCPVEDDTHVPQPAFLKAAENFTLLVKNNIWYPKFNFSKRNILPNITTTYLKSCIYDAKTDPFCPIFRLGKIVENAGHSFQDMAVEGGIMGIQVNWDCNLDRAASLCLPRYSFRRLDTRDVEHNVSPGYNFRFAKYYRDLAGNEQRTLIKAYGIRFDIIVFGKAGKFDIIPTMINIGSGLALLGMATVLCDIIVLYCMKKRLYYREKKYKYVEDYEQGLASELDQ

Point of comparison: `CN(C)c1ccncc1C(=O)Nc1ccc(C2=NCC(=O)Nc3c2ccc2ccccc32)cc1` [Example 22, 4-(Dimethylamino)-N-[4-(2-oxo-2,3-dihydro-1H-naphtho[1,2-e][1,4]diazepin-5 yl)phenyl]nicotinamide dihydrochloride], IC50 1500 nM. Against it:
- CCc1c(O)cccc1C(=O)Nc1ccc(C2=NCC(=O)Nc3c2ccc2ccccc32)cc1 [Example 2, 2-Ethyl-3-hydroxy-N-[4-(2-oxo-2,3-dihydro-1H-naphtho[1,2-e][1,4]-diazepin-5-yl)phenyl]benzamide] — 1.9-fold lower, 770 nM
- CCc1ncccc1C(=O)Nc1ccc(C2=NCC(=O)Nc3c2ccc2ccccc32)cc1 [Example 3, 2-Ethyl-N-[4-(2-oxo-2,3-dihydro-1H-naphtho[1,2-e][1,4]-diazepin-5-yl)phenyl]nicotinamide dihydrochloride] — within 1.5-fold, 1600 nM
- CCc1cccc(O)c1C(=O)Nc1ccc(C2=NCC(=O)Nc3c2ccc2ccccc32)cc1 [Example 4, 2-Ethyl-6-hydroxy-N-[4-(2-oxo-2,3-dihydro-1H-naphtho[1,2-e][1,4]-diazepin-5-yl)phenyl]benzamide] — the same, 1500 nM
- COc1ccccc1CC(=O)Nc1ccc(C2=NCC(=O)Nc3c2ccc2ccccc32)cc1 [Example 7, 2(2-Methoxyphenyl)-N-[4-(2-oxo-2,3-dihydro-1H-naphtho[1,2-e][1,4]-diazepin-5-yl)phenyl]acetamide] — 1.5-fold lower, 970 nM
- O=C1CN=C(c2ccc(NC(=O)c3cccnc3-n3cccc3)cc2)c2ccc3ccccc3c2N1 [Example 19, N-[4-(2-Oxo-2,3-dihydro-1H-naphtho[1,2-e][1,4]-diazepin-5-yl)phenyl]-2-(1H-pyrrol-1-yl)nicotinamide dihydrochloride] — 1.6-fold higher, 2400 nM
- O=C1CN=C(c2ccc(NC(=O)c3cccnc3N3CCOCC3)cc2)c2ccc3ccccc3c2N1 [Example 20, 2-(Morpholin-4-yl)-N-[4-(2-oxo-2,3-dihydro-1H-naphtho[1,2-e][1,4]-diazepin-5-yl)phenyl]nicotinamide dihydrochloride] — 1.7-fold higher, 2500 nM
- O=C1CN=C(c2ccc(NC(=O)c3cccnc3N3CCCC3)cc2)c2ccc3ccccc3c2N1 [Example 21, N-[4-(2-Oxo-2,3-dihydro-1H-naphtho[1,2-e][1,4]-diazepin-5-yl)phenyl]-2-(pyrrolidin-1-yl)nicotinamide dihydrochloride] — within 1.5-fold, 1300 nM
- CC(C)c1ncccc1C(=O)Nc1ccc(C2=NCC(=O)Nc3c2ccc2ccccc32)cc1 [Example 23, 2-Isopropyl-N-[4-(2-oxo-2,3-dihydro-1H-naphtho[1,2-e][1,4]diazepin-5 yl)phenyl]nicotinamide dihydrochloride] — 1.5-fold higher, 2300 nM
- CC(C)Nc1ncccc1C(=O)Nc1ccc(C2=NCC(=O)Nc3c2ccc2ccccc32)cc1 [Example 24, 2-(Isopropylamino)-N-[4-(2-oxo-2,3-dihydro-1H-naphtho[1,2-e][1,4]diazepin-5-yl)phenyl]nicotinamide dihydrochloride] — 5.7-fold higher, 8600 nM

same assay, conditions: Table 9; 1321N1 cells expressing human P2X4; test substance 15 minutes before ATP; read-out: Inhibitory activity IC50

Point of comparison: `CC(C)(C)c1ccccc1C(=O)Nc1ccc(N2C(=O)CC(=O)Nc3c2ccc2ccccc32)cc1F` [Example 12, 2-tert-Butyl-N-[4-(2,4-dioxo-3,4-dihydro-1H-naphtho[2,1-b][1,4]diazepin-5(2H)-yl)2-fluorophenyl]benzamide], IC50 370 nM. Against it:
- CN(C)c1ncccc1C(=O)Nc1ccc(N2C(=O)CC(=O)Nc3c2ccc2ccccc32)cc1 [Example 14, 2-(Dimethylamino)-N-[4-(2,4-dioxo-2,3-dihydro-1H-naphtho[1,2-b][1,4]diazepin-5(2H)-yl)phenyl]nicotinamide hydrochloride] — 1.6-fold higher, 590 nM

same assay, conditions: Table 10; 1321N1 cells expressing human P2X4; test substance 15 minutes before ATP; read-out: Inhibitory activity IC50

In the case of `O=C1CC(=O)N(c2ccc(NC(=O)c3cccnc3N3CCOCC3)cc2)c2ccc3ccccc3c2N1` [Example 18, N-[4-(2,4-Dioxo-3,4-dihydro-1H-naphtho[1,2-b][1,4]-diazepin-5(2H)-yl)phenyl]-2-(morpholin-4-yl)-nicotinamide hydrochloride], the IC50 is reported as 1300 nM.
